According to patent publication US12077503B2, “Substituted cyclic amides and their use as herbicides” (FMC CORPORATION, priority 2015, dated 2024):

What was measured:
Format in all cases: in vivo
[1] = system: ryegrass, Italian (Italian ryegrass, Lolium multiflorum); experiment: Test A preemergence
Summary of the method: (§1)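 Each rating is a visual injury score from 0 to 100 given about 10 d after treatment, judged against untreated controls kept alongside in the greenhouse. In loam soil–sand blend, seeds got a preemergence directed soil spray, while postemergence plants were 2 to 10 cm tall at spraying.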

Kochia (Kochia scoparia) [2] = experiment: Test A preemergence
Summary of the method: as §1

[3] = system: pigweed (Amaranthus retroflexus); experiment: Test A preemergence
[4] = system: ragweed (common ragweed, Ambrosia elatior); experiment: Test A preemergence
Summary of the method: as §1

[5] = system: barnyardgrass (Echinochloa crus-galli); experiment: Test A preemergence
Summary of the method: as §1

[6] = system: giant foxtail (Setaria faberii); experiment: Test A preemergence
Summary of the method: as §1

[7] = system: barnyardgrass (Echinochloa crus-galli); experiment: Test B flooded paddy test; details: Flood, 250 g ai/ha; 0 to 100 scale where 0 is no effect and 100 is complete control; 13 to 15 d
Summary of the method: (§2)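 Rating scale 0–100 (visual, vs untreated controls) after a 13–15 d greenhouse period; application to the flood layer, 3 cm above soil and maintained; plants at 2-leaf stage when treated.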

[8] = system: ducksalad (Heteranthera limosa); experiment: Test B flooded paddy test; details: Flood, 250 g ai/ha; 0 to 100 scale where 0 is no effect and 100 is complete control; 13 to 15 d
Summary of the method: as §2

[9] = system: sedge, umbrella (small-flower umbrella sedge, Cyperus difformis); experiment: Test B flooded paddy test; details: Flood, 250 g ai/ha; 0 to 100 scale where 0 is no effect and 100 is complete control; 13 to 15 d
Summary of the method: as §2

rice (Oryra sativa) = experiment: Test B flooded paddy test; details: Flood, 250 g ai/ha; 0 to 100 scale where 0 is no effect and 100 is complete control; 13 to 15 d
Summary of the method: as §2

[10] = system: ryegrass, Italian (Italian ryegrass, Lolium multiflorum); experiment: Test A postemergence
Summary of the method: as §1

Kochia (Kochia scoparia) [11] = experiment: Test A postemergence
Summary of the method: as §1

[12] = system: pigweed (Amaranthus retroflexus); experiment: Test A postemergence
Summary of the method: as §1

[13] = system: ragweed (common ragweed, Ambrosia elatior); experiment: Test A postemergence
Summary of the method: as §1

[14] = system: blackgrass (Alopecurus myosuroides); experiment: Test A postemergence
Summary of the method: as §1

[15] = system: barnyardgrass (Echinochloa crus-galli); experiment: Test A postemergence
Summary of the method: as §1

corn (Zea mays) = experiment: Test A postemergence
Summary of the method: as §1

[16] = system: giant foxtail (Setaria faberii); experiment: Test A postemergence
Summary of the method: as §1

[17] = system: wheat (Triticum aestivum); experiment: Test A postemergence
Summary of the method: as §1

[18] = system: Galium (catchweed bedstraw, Galium aparine); experiment: Test A postemergence
Summary of the method: as §1

[19] = 125 g ai/ha, preemergence, 0 to 100 scale (0 no effect, 100 complete control)
[20] = Preemergence, 500 g ai/ha, 0 is no effect, 100 is complete control
[21] = 500 g ai/ha, postemergence, 0 to 100 scale, 0 no effect, 100 complete control
[22] = Postemergence, 125 g ai/ha, visual injury, 0 to 100 scale (0 no effect, 100 complete control), approx. 10 d
[23] = 125 g ai/ha, Preemergence, visual injury after approximately 10 d, 0 to 100 scale where 0 is no effect and 100 is complete control
[24] = Preemergence, 500 g ai/ha, visual injury approx. 10 d
[25] = 125 g ai/ha, postemergence, visual injury rating on 0 to 100 scale (0 no effect, 100 complete control), approx. 10 d
[26] = Postemergence, 500 g ai/ha, 0 to 100 scale where 0 is no effect and 100 is complete control
[27] = 500 g ai/ha, preemergence, 0 to 100 scale, 0 = no effect, 100 = complete control
[28] = 125 g ai/ha, postemergence, visual rating after approx. 10 d, 0 to 100 scale (0 no effect, 100 complete control)
[29] = 500 g ai/ha, postemergence, visual injury, 0 to 100 scale (0 no effect, 100 complete control), approx. 10 d

O=C1NCC(c2ccccc2-c2ccccc2)C1C(=O)Nc1cccc(F)c1F (racemic) [Compound 379]
0: Plant response rating, Ryegrass, Italian [1, 19] | Ryegrass, Italian plant response rating (0 to 100 scale) [1, 20] | Plant response rating, Kochia (Kochia (Kochia scoparia) [2]; [19]) | Kochia plant response rating (0 to 100 scale) (Kochia (Kochia scoparia) [2]; [20]) | Plant response rating, Pigweed [3, 19] | Pigweed plant response rating (0 to 100 scale) [3, 20] | Plant response rating, Ragweed [4, 19] | Ragweed plant response rating (0 to 100 scale) [4, 20] | Plant response rating, Barnyardgrass [5, 19] | Plant response rating, Foxtail, Giant [6, 19] | Plant response rating, Barnyardgrass [7] | Plant response rating, Ducksalad [8] | Plant response rating, Sedge, Umbrella [9] | Plant response rating, Rice (rice (Oryra sativa)) | Plant response rating, Ryegrass, Italian [10, 21] | Plant response rating, Ryegrass, Italian [10, 22] | Plant response rating, Kochia (Kochia (Kochia scoparia) [11]; [21]) | Plant response rating, Kochia (Kochia (Kochia scoparia) [11]; [22]) | Plant response rating, Pigweed [12, 21] | Plant response rating, Pigweed [12, 22] | Plant response rating, Ragweed [13, 21] | Plant response rating, Ragweed [13, 22] | Plant response rating, Blackgrass [14, 21] | Plant response rating, Blackgrass [14, 22] | Plant response rating, Barnyardgrass [15, 22] | Plant response rating, Corn (corn (Zea mays); [21]) | Plant response rating, Corn (corn (Zea mays); [22]) | Plant response rating, Foxtail, Giant [16, 22] | Plant response rating, Wheat [17, 21] | Plant response rating, Wheat [17, 22] | Plant response rating, Galium [18, 21] | Plant response rating, Galium [18, 22]
50: Plant response rating, Barnyardgrass [15, 21]
20: Plant response rating, Foxtail, Giant [16, 21]
40: Foxtail, Giant plant response rating (0 to 100 scale) [6, 20]
30: Barnyardgrass plant response rating (0 to 100 scale) [5, 20]

O=C1NCC(c2ccc(C(F)(F)F)c(F)c2)C1C(=O)Nc1cccc(F)c1F (racemic) [Compound 504]
80: Plant response rating, Kochia (Kochia (Kochia scoparia) [2]; [23]) | Kochia plant response rating (0 to 100 scale, 0 is no effect, 100 is complete control) (Kochia (Kochia scoparia) [2]; [24]) | Plant response rating, Pigweed [3, 23] | Plant response rating, Ducksalad [8] | Barnyardgrass plant response rating [15, 25]
70: Ryegrass, Italian plant response rating (0 to 100 scale, 0 is no effect, 100 is complete control) [1, 24] | Plant response rating, Pigweed [12, 26] | Corn plant response rating (corn (Zea mays); [25]) | Plant response rating, Corn (corn (Zea mays); [26]) | Galium plant response rating [18, 25] | Plant response rating, Galium [18, 26]
0: Plant response rating, Sedge, Umbrella [9] | Plant response rating, Rice (rice (Oryra sativa))
100: Pigweed plant response rating (0 to 100 scale, 0 is no effect, 100 is complete control) [3, 24]
40: Plant response rating, Ryegrass, Italian [1, 23] | Plant response rating, Ragweed [4, 23] | Plant response rating, Barnyardgrass [7] | Ryegrass, Italian plant response rating [10, 25] | Plant response rating, Ryegrass, Italian [10, 26] | Plant response rating, Ragweed [13, 26] | Blackgrass plant response rating [14, 25]
50: Ragweed plant response rating (0 to 100 scale, 0 is no effect, 100 is complete control) [4, 24]
30: Kochia plant response rating (Kochia (Kochia scoparia) [11]; [25]) | Ragweed plant response rating [13, 25]
90: Plant response rating, Barnyardgrass [5, 23] | Barnyardgrass plant response rating (0 to 100 scale, 0 is no effect, 100 is complete control) [5, 24] | Plant response rating, Foxtail, Giant [6, 23] | Foxtail, Giant plant response rating (0 to 100 scale, 0 is no effect, 100 is complete control) [6, 24] | Plant response rating, Barnyardgrass [15, 26] | Foxtail, Giant plant response rating [16, 25] | Plant response rating, Foxtail, Giant [16, 26]
60: Plant response rating, Kochia (Kochia (Kochia scoparia) [11]; [26]) | Pigweed plant response rating [12, 25] | Plant response rating, Blackgrass [14, 26] | Plant response rating, Wheat [17, 26]
20: Wheat plant response rating [17, 25]

CN1CC(c2cc(F)cc(F)c2)C(C(=O)Nc2cccc3c2CCC3)C1=O (stereo not drawn) [Compound 659]
90: Plant response rating, Barnyardgrass [5, 23] | Plant response rating, Barnyardgrass [5, 27] | Plant response rating, Foxtail, Giant [6, 23] | Plant response rating, Foxtail, Giant [6, 27] | Plant response rating, Barnyardgrass [15, 29] | Plant response rating, Foxtail, Giant [16, 28] | Plant response rating, Foxtail, Giant [16, 29]
0: Plant response rating, Ryegrass, Italian [1, 23] | Plant response rating, Kochia (Kochia (Kochia scoparia) [2]; [23]) | Plant response rating, Kochia (Kochia (Kochia scoparia) [2]; [27]) | Plant response rating, Pigweed [3, 23] | Plant response rating, Pigweed [3, 27] | Plant response rating, Ragweed [4, 23] | Plant response rating, Ragweed [4, 27] | Plant response rating, Sedge, Umbrella [9] | Plant response rating, Ryegrass, Italian [10, 28] | Plant response rating, Pigweed [12, 28] | Plant response rating, Pigweed [12, 29] | Plant response rating, Ragweed [13, 28] | Plant response rating, Ragweed [13, 29] | Plant response rating, Corn (corn (Zea mays); [28]) | Plant response rating, Wheat [17, 28] | Plant response rating, Galium [18, 28]
30: Plant response rating, Ryegrass, Italian [1, 27]
80: Plant response rating, Ducksalad [8]
60: Plant response rating, Barnyardgrass [7] | Plant response rating, Ryegrass, Italian [10, 29]
40: Plant response rating, Blackgrass [14, 28]
70: Plant response rating, Barnyardgrass [15, 28]
15: Plant response rating, Rice (rice (Oryra sativa))
50: Plant response rating, Blackgrass [14, 29] | Plant response rating, Corn (corn (Zea mays); [29]) | Plant response rating, Wheat [17, 29]
20: Plant response rating, Kochia (Kochia (Kochia scoparia) [11]; [28]) | Plant response rating, Kochia (Kochia (Kochia scoparia) [11]; [29]) | Plant response rating, Galium [18, 29]
